In one assay the test system is intestinal permeability. As to the kind of experiment: Determination of intestinal permeability in serum with FITC-dextran. It is filed as in vivo, Balb/c mice. As to conditions: after third stage of modeling; monotropein high and low doses, 5-ASA 100 mg/kg. The procedure: Experimental method: 90 Balb/c mice of 6-8 weeks were purchased from the Experimental Animal Center in Guangzhou University of Chinese Medicine, weighed about 18-22 g, and subjected to adaptive feeding for 10 days. Modeling was divided into three stages. In the first stage, except for the normal group of animals being given saline injection, each of the other animals were intraperitoneally injected with a carcinogen AOM (10 mg/kg), and given free access to 2% DSS water from the next day for 7 days, and then given access to replaced regular drinking water for 14 days. In the second stage, the animals were given free access to 2% DSS water for 10 days, and then given access to replaced regular drinking water for 14 days. In the third stage, the animals were given free access to 2% DSS water for 10 days, and then given access to replaced regular drinking water for 11 days. […] The diet, water drinking and body weights of the animals were recorded daily and DAI scores were made, and the animals were killed and harvested at the 10th week. […] 25 μl of serum was taken and added with 100 μl PBS, and determined on a microplate reader for its fluorescence intensity, where the wavelength of the exciting light was 480 nm, and the wavelength of the emitting light was 520 nm. A standard curve was made and the sample concentration was calculated.

A further assay concerns Aktl. The experiment in a line: Detection of acting target of monotropein: Aktl (Western blot). It is filed as in vivo, Balb/c mice. The note with it: colon of AOM/DSS mice. The procedure: Experimental method: 90 Balb/c mice of 6-8 weeks were purchased from the Experimental Animal Center in Guangzhou University of Chinese Medicine, weighed about 18-22 g, and subjected to adaptive feeding for 10 days. Modeling was divided into three stages. In the first stage, except for the normal group of animals being given saline injection, each of the other animals were intraperitoneally injected with a carcinogen AOM (10 mg/kg), and given free access to 2% DSS water from the next day for 7 days, and then given access to replaced regular drinking water for 14 days. In the second stage, the animals were given free access to 2% DSS water for 10 days, and then given access to replaced regular drinking water for 14 days. In the third stage, the animals were given free access to 2% DSS water for 10 days, and then given access to replaced regular drinking water for 11 days. The normal group was given access to regular drinking water throughout the experiment. The diet, water drinking and body weights of the animals were recorded daily and DAI scores were made, and the animals were killed and harvested at the 10th week. […]
A potential acting target of monotropein for interfering with the colon cancer was detected.
In general terms: A western blot detects proteins with antibodies after separation by electrophoresis.

Assay [1] deals with AOM/DSS colon cancer model. As to the kind of experiment: AOM/DSS colon cancer model, Experiment 2 (colon length, thickness, tumors). It is filed as in vivo, Balb/c mice. The note with it: 2 mg/kg once a day. Here is the method:
Experimental method: 70 Balb/c mice of 6-8 weeks were purchased from the Experimental Animal Center in Guangzhou University of Chinese Medicine, weighed about 18-22 g, and subjected to adaptive feeding for 10 days. Modeling was divided into three stages. In the first stage, except for the normal group of animals being given saline injection, each of the other animals were intraperitoneally injected with a carcinogen AOM (10 mg/kg), and given free access to 2% DSS water from the next day for 7 days, and then given access to replaced regular drinking water for 14 days. In the second stage, the animals were given free access to 2% DSS water for 10 days, and then given access to replaced regular drinking water for 14 days. In the third stage, the animals were given free access to 2% DSS water for 10 days, and then given access to replaced regular drinking water for 11 days. The normal group was given access to regular drinking water throughout the experiment. The diet, water drinking and body weights of the animals were recorded daily and DAI scores were made, and the animals were killed and harvested at the 10th week. In this experiment, the animals were divided into groups and administrated on the first day of a modeling period of the second stage, where a total of 7 groups were set, each group including 10 animals. The first group was a blank control group (control) that was given access to drinking water by gavage; the second group was a model group (model), in which a total of 10 animals were given access to drinking water by gavage; the third group was a vitamin D3 positive administration control group (VD3, 0.2 mg/kg); and the fourth to seventh groups were given monotropein, desacetyl asperulosidic acid, asperuloside, and asperulosidic acid (groups labeled as: Mo, As, Aa, Da), respectively at a given dose of 2 mg/kg. Dosing was conducted once a day until the end of the experiment. At the end of the experiment, the animals were anesthetized and harvested, and the colon tissue was taken, measured with a ruler for the length, and measured with a vernier caliper for the thickness. The effects of monotropein, desacetyl asperulosidic acid, asperuloside and asperulosidic acid on expression of the vitamin D receptor were detected.

Assay [2] relates to SW1990 breast cancer cells. The experiment in a line: In vitro proliferation inhibition of SW1990 breast cancer cells. The format is cell-based. As to conditions: concentration of 1 uM; compared with blank control group. The procedure: (§1) The SW1990 cells were thawed, and cultured in a changed medium after 24 hours. Medium preparation method: 6% serum, 1% of a bispecific antibody+a 1640 basal medium. After grown to confluent, the cells were digested and subcultured to expand the number of cells. When reached the required amount, the cells were digested by trypsin, centrifuged, and resuspended in PBS to prepare a cell suspension of 1×10^8 cells/ml. A part of the cell suspension was added with the monotropein, desacetyl asperulosidic acid, asperuloside, and asperulosidic acid respectively, and the inhibition rate (%) of tumor cell proliferation by each of these different compounds was examined.

Assay [3] concerns SMB-231 pancreatic cancer cells. The experiment in a line: In vitro proliferation inhibition of SMB-231 pancreatic cancer cells. The format is cell-based. The note with it: concentration of 1 uM; compared with blank control group. Here is the method: as §1, with “SMB-231 pancreatic cancer” for “SW1990”

Consider `O=C(O)C1=CO[C@@H](O[C@@H]2O[C@H](CO)[C@@H](O)[C@H](O)[C@H]2O)[C@H]2[C@@H]1C=C[C@]2(O)CO` [monotropein], for which the “intestinal permeability (FITC-dextran in serum) vs model group” value in the assay with intestinal permeability is “significant differences”. The “effect on Aktl, Western blot” value with Aktl is reported as “no significant effect”. For the same compound, in assay [1], the “incidence and development of colorectal cancers” value was “inhibiting the incidence and development of colorectal cancers”. Also, the “proliferation of SW1990 cells in vitro” value in assay [2] is given as “significantly inhibit the proliferation”. The “proliferation of SMB-231 pancreatic cancer cells in vitro” value in assay [3] is “significantly inhibit the proliferation”.
